In patent publication US7008649B2, “Cancer treatment composition and method using natural plant essential oils with signal transduction modulators” (Ecosmart Techonlogies, Inc., priority 1998, dated 2006):

What was measured:
Assay type in all cases: cell-based, human
MCF-7 cells [1] = test: Mixed exposure of plant essential oil compounds and forskolin (FK) on E2-induced breast cancer cell growth (FIG. 3); conditions: mixed exposure with forskolin (FK), 10 nM estrogen
Procedure: (§1) MCF-7 cells were cultured in growth medium supplemented with 10% fetal bovine serum (FBS). At 85% confluence, cells were sub-cultured in 6 well petri-dishes medium supplemented with 5% FBS serum stripped medium, phenol red free for 24 hours prior to the treatment of different concentrations of the test chemicals. Cells were either counted (5 days after treatment) or used to determine cell proliferation (24 hr after treatment) using ^3H-thymidine incorporation. To count the cell, cells were trypsinized, and collected using Eppendorf microcentrifuge. The cell pellets were resuspended in 1% trypan blue and three aliquots (10 ul each) of the viable cell suspension was counted using a haemocytometer assay. Each sample was then counted three times to obtain an average count. For thymidine incoroporation, 24 hr after cell treated with test mixture, cells were incubated with 1 uCi ^3H-thymidine. After 2 hr, the medium was withdrawn and the cells were washed with thymidine-free medium and 10% TCA prior to radioactive count. Plant essential oil compounds were tested in the presence of 10 nM estrogen (=2.7 ng estrogen/ml) using three wells per test concentration. This experiment was repeated two times. A control sample received solvent only at <0.1% ethanol. The data supports the involvement of cellular signaling proteins, particularly cAMP/PKA cascade in the E2-induced cell proliferation in human breast cancer cells as judged by the antiestrogenic activity of FK. However, different methods are required to evaluate antiestrogenic activity.

MCF-7 cells [2] = test: Plant essential oil compounds against E2-induced cell growth, viable cell count (trypan blue, haemocytometer); conditions: 10 nM estrogen, 5 days of treatment; for protection against E2-induced abnormal cell growth: 1 ug/ml
Procedure: Various concentrations of plant essential oil compounds were tested against E2-induced cell growth to determine the lowest concentrations that antagonize the E2-induced cell growth. MCF-7 cells were cultured in growth medium supplemented with 10% fetal bovine serum (FBS). At 85% confluence, cells were sub-cultured in 6 well petri-dishes and supplemented with 5% FBS serum stripped medium, phenol red free for 24 hours prior to the treatment of different concentrations of the test chemicals. After 5 days of treatment cells were trypsinized and collected using an Eppendorf microcentrifuge. The cell pellets were resuspended in 1% trypan blue. Three aliquots (10 ul each) of the viable cell suspension was counted using a haemocytometer assay. Each sample was then counted three times and to obtain an average count. The compounds were tested in the presence of 10 nM estrogen (=2.7 ng estrogen/ml). Two wells per test concentration were used. This experiment was repeated two times. A control sample-received solvent only at <0.1% ethanol.

MCF-7 cells [3] = test: Mixed exposure of okadaic acid (OA) and plant essential oil compounds, 3H-thymidine incorporation (FIG. 5); conditions: 10 ug/ml plant essential oil compound + 1 nM okadaic acid, 24 hr, with or without 10 nM E2
Procedure: MCF-7 cells were cultured in growth medium supplemented with 10% fetal bovine serum (FBS). At 85% confluence, cells were sub-cultured in 6 well petri-dishes medium supplemented with 5% FBS serum stripped medium, phenol red free for 24 hours prior to the treatment of 10 ug/ml of each plant essential oil compound and 1 nM okadiac acid. After 24 hr treatment, cells were used to determine cell proliferation using ^3H-thymidine incorporation. Two hrs after cell incubation with 1 uCi ^3H-thymidine, the medium was withdrawn and the cells were washed with thymidine-free medium and 10% TCA prior to radioactive count. These test chemicals were tested in the presence of 10 nM estrogen (=2.7 ng estrogen/ml). Three wells per test concentration were used. This experiment was repeated two times. A control sample received solvent only at <0.1% ethanol.

MCF-7 cells [4] = test: Effect of geldanamycin (GM) on antiestrogenic activity of plant essential oil compounds against E2-induced cell growth (FIG. 4); conditions: mixed exposure with geldanamycin (GM), 10 nM estrogen
Procedure: as §1, with “The data supports the involvement of cellular signaling proteins, particularly cAMP/PKA cascade in the E2-induced cell proliferation in human breast cancer cells as judged by the antiestrogenic activity of FK. However, different methods are required to evaluate antiestrogenic activity.” left out

O=C/C=C/c1ccccc1 [Cinnamic aldehyde]
synergism by FK of the antiestrogenic activity of the plant essential oil compound (MCF-7 cells [1]): synergizes | protection against the E2-induced abnormal cell growth (MCF-7 cells [2]; 10 μg/ml): approximately 75%

C=CCc1ccc(O)c(OC)c1 [eugenol]
synergism by FK of the antiestrogenic activity of the plant essential oil compound (MCF-7 cells [1]): synergizes | synergism by OA of the antiestrogenic activity of the plant essential oil compound (MCF-7 cells [3]): regardless of the absence or presence of E2 | synergism by GM of the antiestrogenic activity against E2 induced cell growth (MCF-7 cells [4]): synergizes | protection against E2-induced abnormal cell growth (MCF-7 cells [2]): 35%

CC=Cc1ccc(O)c(OC)c1 [isoeugenol]
synergism by FK of the antiestrogenic activity of the plant essential oil compound (MCF-7 cells [1]): not | protection against E2-induced abnormal cell growth (MCF-7 cells [2]): 25% | protection against the E2-induced abnormal cell growth (MCF-7 cells [2]; concentration not given): approximately 75%

Cc1ccc(C(C)C)c(O)c1 [thymol]
synergism by FK of the antiestrogenic activity of the plant essential oil compound (MCF-7 cells [1]): not | synergism by OA of the antiestrogenic activity of the plant essential oil compound (MCF-7 cells [3]): only in the absence of E2 | protection against the E2-induced cell proliferation (MCF-7 cells [2]; 5 ug/ml): 40%
